Experimental data as given in patent US6358885B1, “Substituted phenylheterocyclic herbicides” (Mississippi State University, priority 1992, dated 2002).

Columns and labels:
morningglory = assay: Test B preemergence/postemergence greenhouse plant response rating 0 to 10; assay type: in vivo, Ipomoea hederacea; settings: 0 to 10 scale
Method in brief: (§1)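 Test chemicals, dissolved in a non-phytotoxic solvent, were applied to soil at planting and, at the same time, over foliage of seedlings at the one to four leaf stage.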

wheat [1] = assay: Test C preemergence/postemergence greenhouse plant response rating 0 to 100; assay type: in vivo, Triticum aestivum; settings: POSTEMERGENCE; for Plant response rating, Wheat: 62 g/ha, 0 to 100 scale
Method in brief: (§2)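 Compounds in non-phytotoxic solvent went onto sandy loam before emergence (seeded one day earlier) or onto plants at the one-to-four leaf stage. Duck salad was treated via flood water (~2.5 cm, maintained) over silt loam.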

speedwell = assay: as above; assay type: in vivo, Veronica persica; settings: POSTEMERGENCE; for Plant response rating Speedwell: 62 g/ha, 0 to 100 scale
Method in brief: as §2

wheat [2] = assay: Test B preemergence/postemergence greenhouse plant response rating 0 to 10; assay type: in vivo, Triticum aestivum; settings: 0 to 10 scale
Method in brief: as §1

barnyardgrass = assay: as above; assay type: in vivo, Echinochloa crus-galli; settings: 0 to 10 scale
Method in brief: as §1

blackgrass = assay: Test C preemergence/postemergence greenhouse plant response rating 0 to 100; assay type: in vivo, Alopecurus myosuroides; settings: POSTEMERGENCE; for Plant response rating, Blackgrass: 62 g/ha, 0 to 100 scale
Method in brief: as §2

bedstraw = assay: as above; assay type: in vivo, Galium aparine; settings: POSTEMERGENCE; for Plant response rating, Bedstraw: 62 g/ha, 0 to 100 scale
Method in brief: as §2

wild oat = assay: as above; assay type: in vivo, Avena fatua; settings: POSTEMERGENCE; for Plant response rating, Wild oat: 62 g/ha, 0 to 100 scale
Method in brief: as §2

crabgrass = assay: as above; assay type: in vivo, Digitaria sanguinalis; settings: POSTEMERGENCE; for Plant response rating, Crabgrass: 62 g/ha, 0 to 100 scale
Method in brief: as §2

velvetleaf = assay: Test B preemergence/postemergence greenhouse plant response rating 0 to 10; assay type: in vivo, Abutilon theophrasti; settings: 0 to 10 scale
Method in brief: as §1

cotton = assay: as above; assay type: in vivo, Gossypium hirsutum; settings: 0 to 10 scale
Method in brief: as §1

rape = assay: Test C preemergence/postemergence greenhouse plant response rating 0 to 100; assay type: in vivo, Brassica napus; settings: POSTEMERGENCE; for Plant response rating, Rape: 62 g/ha, 0 to 100 scale
Method in brief: as §2

giant foxtail = assay: as above; assay type: in vivo, Setaria faberii; settings: POSTEMERGENCE; for Plant response rating, Giant foxtail: 62 g/ha, 0 to 100 scale
Method in brief: as §2

COCN1C(=O)COc2cc(F)c(-c3nn4c(c3Cl)CCCC4)cc21 [Compound 55]
10: Plant response rating, Morningglory (morningglory; POSTEMERGENCE, Rate 10 g/ha) | Plant response rating, Morningglory (morningglory; POSTEMERGENCE, Rate 50 g/ha) | Plant response rating (0 to 100), Crabgrass (crabgrass; Rate 1 g/ha) | Plant response rating (0 to 100), Crabgrass (crabgrass; Rate 4 g/ha) | Plant response rating, Velvetleaf (velvetleaf; POSTEMERGENCE, Rate 10 g/ha) | Plant response rating, Velvetleaf (velvetleaf; PREEMERGENCE, Rate 50 g/ha) | Plant response rating, Cotton (cotton; POSTEMERGENCE, Rate 10 g/ha) | Plant response rating, Cotton (cotton; POSTEMERGENCE, Rate 50 g/ha)
6: Plant response rating, Wheat (wheat [2]; POSTEMERGENCE, Rate 50 g/ha) | Plant response rating, Barnyardgrass (barnyardgrass; POSTEMERGENCE, Rate 50 g/ha) | Plant response rating, Barnyardgrass (barnyardgrass; PREEMERGENCE, Rate 50 g/ha) | Plant response rating, Cotton (cotton; PREEMERGENCE, Rate 10 g/ha)
30: Plant response rating (0 to 100), Wheat (wheat [1]; Rate 1 g/ha) | Plant response rating (0 to 100), Blackgrass (blackgrass; Rate 1 g/ha) | Plant response rating (0 to 100), Bedstraw (bedstraw; Rate 1 g/ha) | Plant response rating (0 to 100), Wild oat (wild oat; Rate 4 g/ha) | Plant response rating (0 to 100), Crabgrass (crabgrass; Rate 16 g/ha) | Plant response rating (0 to 100), Giant foxtail (giant foxtail; Rate 4 g/ha)
4: Plant response rating, Wheat (wheat [2]; PREEMERGENCE, Rate 50 g/ha)
100: Plant response rating Speedwell (speedwell) | Plant response rating (0 to 100), Speedwell (speedwell; Rate 4 g/ha) | Plant response rating (0 to 100), Speedwell (speedwell; Rate 16 g/ha) | Plant response rating, Bedstraw (bedstraw) | Plant response rating (0 to 100), Bedstraw (bedstraw; Rate 16 g/ha) | Plant response rating, Rape (rape) | Plant response rating (0 to 100), Rape (rape; Rate 4 g/ha) | Plant response rating (0 to 100), Rape (rape; Rate 16 g/ha)
50: Plant response rating (0 to 100), Wheat (wheat [1]; Rate 16 g/ha) | Plant response rating (0 to 100), Blackgrass (blackgrass; Rate 16 g/ha) | Plant response rating, Giant foxtail (giant foxtail)
9: Plant response rating, Velvetleaf (velvetleaf; POSTEMERGENCE, Rate 50 g/ha)
20: Plant response rating (0 to 100), Wild oat (wild oat; Rate 1 g/ha) | Plant response rating (0 to 100), Giant foxtail (giant foxtail; Rate 1 g/ha)
0: Plant response rating, Barnyardgrass (barnyardgrass; PREEMERGENCE, Rate 10 g/ha)
8: Plant response rating, Morningglory (morningglory; PREEMERGENCE, Rate 50 g/ha) | Plant response rating, Wheat (wheat [2]; POSTEMERGENCE, Rate 10 g/ha)
90: Plant response rating (0 to 100), Bedstraw (bedstraw; Rate 4 g/ha)
40: Plant response rating (0 to 100), Wheat (wheat [1]; Rate 4 g/ha) | Plant response rating (0 to 100), Blackgrass (blackgrass; Rate 4 g/ha) | Plant response rating (0 to 100), Wild oat (wild oat; Rate 16 g/ha) | Plant response rating, Crabgrass (crabgrass) | Plant response rating (0 to 100), Giant foxtail (giant foxtail; Rate 16 g/ha)
2: Plant response rating, Barnyardgrass (barnyardgrass; POSTEMERGENCE, Rate 10 g/ha)
60: Plant response rating, Wheat (wheat [1]) | Plant response rating (0 to 100), Speedwell (speedwell; Rate 1 g/ha) | Plant response rating, Blackgrass (blackgrass) | Plant response rating, Wild oat (wild oat) | Plant response rating (0 to 100), Rape (rape; Rate 1 g/ha)
1: Plant response rating, Cotton (cotton; PREEMERGENCE, Rate 50 g/ha)

C#CCN1C(=O)COc2cc(F)c(-c3nn4c(c3Br)CCCC4)cc21 [Compound 56]
20: Plant response rating, Crabgrass (crabgrass)
60: Plant response rating, Wheat (wheat [1]) | Plant response rating (0 to 100), Wheat (wheat [1]; Rate 16 g/ha) | Plant response rating, Wild oat (wild oat)
80: Plant response rating, Blackgrass (blackgrass) | Plant response rating (0 to 100), Bedstraw (bedstraw; Rate 4 g/ha)
95: Plant response rating (0 to 100), Bedstraw (bedstraw; Rate 16 g/ha)
70: Plant response rating (0 to 100), Bedstraw (bedstraw; Rate 1 g/ha)
10: Plant response rating, Morningglory (morningglory; POSTEMERGENCE, Rate 10 g/ha) | Plant response rating (0 to 100), Crabgrass (crabgrass; Rate 16 g/ha) | Plant response rating, Velvetleaf (velvetleaf; PREEMERGENCE, Rate 50 g/ha) | Plant response rating, Cotton (cotton; POSTEMERGENCE, Rate 10 g/ha) | Plant response rating, Cotton (cotton; POSTEMERGENCE, Rate 50 g/ha) | Plant response rating (0 to 100), Giant foxtail (giant foxtail; Rate 1 g/ha) | Plant response rating (0 to 100), Giant foxtail (giant foxtail; Rate 4 g/ha)
0: Plant response rating, Barnyardgrass (barnyardgrass; PREEMERGENCE, Rate 10 g/ha) | Plant response rating, Barnyardgrass (barnyardgrass; PREEMERGENCE, Rate 50 g/ha) | Plant response rating (0 to 100), Crabgrass (crabgrass; Rate 1 g/ha) | Plant response rating (0 to 100), Crabgrass (crabgrass; Rate 4 g/ha) | Plant response rating, Cotton (cotton; PREEMERGENCE, Rate 10 g/ha) | Plant response rating, Cotton (cotton; PREEMERGENCE, Rate 50 g/ha)
3: Plant response rating, Barnyardgrass (barnyardgrass; POSTEMERGENCE, Rate 10 g/ha)
4: Plant response rating, Wheat (wheat [2]; PREEMERGENCE, Rate 50 g/ha) | Plant response rating, Barnyardgrass (barnyardgrass; POSTEMERGENCE, Rate 50 g/ha)
65: Plant response rating (0 to 100), Blackgrass (blackgrass; Rate 16 g/ha)
6: Plant response rating, Morningglory (morningglory; PREEMERGENCE, Rate 50 g/ha)
30: Plant response rating (0 to 100), Wheat (wheat [1]; Rate 1 g/ha) | Plant response rating (0 to 100), Blackgrass (blackgrass; Rate 1 g/ha) | Plant response rating (0 to 100), Wild oat (wild oat; Rate 1 g/ha) | Plant response rating (0 to 100), Giant foxtail (giant foxtail; Rate 16 g/ha)
40: Plant response rating (0 to 100), Blackgrass (blackgrass; Rate 4 g/ha) | Plant response rating (0 to 100), Wild oat (wild oat; Rate 4 g/ha) | Plant response rating, Giant foxtail (giant foxtail)
9: Plant response rating, Morningglory (morningglory; POSTEMERGENCE, Rate 50 g/ha) | Plant response rating, Velvetleaf (velvetleaf; POSTEMERGENCE, Rate 10 g/ha) | Plant response rating, Velvetleaf (velvetleaf; POSTEMERGENCE, Rate 50 g/ha)
7: Plant response rating, Wheat (wheat [2]; POSTEMERGENCE, Rate 10 g/ha) | Plant response rating, Wheat (wheat [2]; POSTEMERGENCE, Rate 50 g/ha)
50: Plant response rating (0 to 100), Wheat (wheat [1]; Rate 4 g/ha) | Plant response rating (0 to 100), Wild oat (wild oat; Rate 16 g/ha)
100: Plant response rating Speedwell (speedwell) | Plant response rating (0 to 100), Speedwell (speedwell; Rate 1 g/ha) | Plant response rating (0 to 100), Speedwell (speedwell; Rate 4 g/ha) | Plant response rating (0 to 100), Speedwell (speedwell; Rate 16 g/ha) | Plant response rating, Bedstraw (bedstraw) | Plant response rating, Rape (rape) | Plant response rating (0 to 100), Rape (rape; Rate 1 g/ha) | Plant response rating (0 to 100), Rape (rape; Rate 4 g/ha) | Plant response rating (0 to 100), Rape (rape; Rate 16 g/ha)
